ChEMBL document CHEMBL3045959, “QSAR studies on substituted 3- or 4-phenyl-1,8-naphthyridine derivatives as antimicrobial agents” (2012)

Columns and labels:
Type in all cases: functional
[1] = test system: Mycobacterium tuberculosis; test: Antimycobacterial activity against Mycobacterium tuberculosis H37Rv at 6.25 ug/ml
Escherichia coli = test: Antibacterial activity against Escherichia coli by […]
Staphylococcus aureus = test: Antibacterial activity against Staphylococcus aureus by […]

Row | Structure (SMILES) | -log(inh/100-inh) [1] | inhibition zone (IZ) (Escherichia coli) | inhibition zone (IZ) (Staphylococcus aureus)
1 | Cc1ccc2c(Cl)c(C)c(N3CCCCC3)nc2n1 | -0.6886 | – | –
2 | CCOC(=O)N1CCN(c2cc(-c3ccccc3)c3ccc(N4CCNCC4)nc3n2)CC1 | 1.0607 | 25 mm | 23 mm
3 | CCOC(=O)N1CCN(c2nc3nc(N4CCOCC4)ccc3cc2-c2ccccc2)CC1 | 0.2499 | 17 mm | 13 mm
4 | CCOC(=O)N1CCN(c2nc3nc(Cl)ccc3cc2-c2ccccc2)CC1 | 0.3076 | 24 mm | –
5 | COC(=O)N1CCN(c2nc3nc(OC)ccc3cc2-c2ccccc2)CC1 | -0.1224 | 12 mm | 16 mm
6 | c1ccc(-c2cc3ccc(N4CCNCC4)nc3nc2N2CCNCC2)cc1 | 0.432 | 12 mm | 14 mm
7 | c1ccc(-c2cc3ccc(N4CCCCC4)nc3nc2N2CCNCC2)cc1 | 0.8653 | 18 mm | –
8 | COc1ccc2cc(-c3ccccc3)c(N3CCNCC3)nc2n1 | 0.3076 | 16 mm | 12 mm
9 | Cc1ccc2c(Cl)c(C)c(Cl)nc2n1 | -1.9956 | – | –
10 | Cc1ccc2c(Cl)c(Cc3ccccc3)c(C)nc2n1 | 0.0872 | – | –
11 | Cc1ccc2c(Cl)c(Cc3ccccc3)c(N3CCOCC3)nc2n1 | -0.6021 | – | –
12 | Cc1ccc2c(Cl)c(Cc3ccccc3)c(N3CCCCC3)nc2n1 | -0.1581 | – | –
13 | Cc1ccc2c(N3CCOCC3)c(C)c(N3CCCCC3)nc2n1 | -0.908 | – | –
14 | Cc1ccc2c(N3CCOCC3)c(Cc3ccccc3)c(N3CCCCC3)nc2n1 | -0.6021 | – | –
15 | Cc1ccc2c(N3CCCCC3)c(Cc3ccccc3)c(N3CCCCC3)nc2n1 | 1.3802 | – | –
16 | Oc1ccc2c(Cl)cc(N3CCOCC3)nc2n1 | -1.6902 | – | –
17 | Clc1ccc2c(Cl)cc(N3CCOCC3)nc2n1 | -0.2126 | – | –
18 | Clc1cc(N2CCOCC2)nc2nc(N3CCCCC3)ccc12 | -0.432 | – | –
19 | c1cc2c(N3CCOCC3)cc(N3CCOCC3)nc2nc1N1CCOCC1 | -0.908 | – | –
20 | c1cc2c(N3CCCCC3)cc(N3CCOCC3)nc2nc1N1CCCCC1 | -0.1224 | – | –

Row | Structure (SMILES) | -log(inh/100-inh) [1] | inhibition zone (IZ) (Escherichia coli) | inhibition zone (IZ) (Staphylococcus aureus)
21 | Oc1ccc2c(N3CCOCC3)cc(N3CCOCC3)nc2n1 | -1.0048 | – | –
22 | Clc1ccc2c(N3CCOCC3)cc(N3CCOCC3)nc2n1 | -1.9956 | – | –
23 | Clc1ccc2c(N3CCCCC3)cc(N3CCOCC3)nc2n1 | -1.0607 | – | –
24 | c1cc2c(N3CCCCC3)cc(N3CCOCC3)nc2nc1N1CCOCC1 | -0.908 | – | –
25 | CC(=O)Nc1ccc2c(Cl)cc(N3CCCCC3)nc2n1 | -1.0607 | – | –
26 | Nc1ccc2c(Cl)cc(N3CCCCC3)nc2n1 | -0.2126 | – | –
27 | Nc1ccc2c(N3CCCCC3)cc(N3CCNCC3)nc2n1 | 0.4102 | – | –
28 | Nc1ccc2c(N3CCCCC3)cc(N3CCOCC3)nc2n1 | -1.195 | – | –
29 | O=C(CCc1ccc2c(-c3ccccc3)cc(O)nc2n1)OCCN1CCNCC1 | -0.7202 | – | –
30 | Oc1cc(-c2ccccc2)c2ccc(N3CCNCC3)nc2n1 | -0.908 | – | –
31 | c1ccc(-c2cc(N3CCCCC3)nc3nc(N4CCCCC4)ccc23)cc1 | 1.9956 | 28 mm | 14 mm
32 | c1ccc(-c2cc(N3CCOCC3)nc3nc(N4CCOCC4)ccc23)cc1 | – | – | 12 mm
33 | c1ccc(-c2cc(CCN3CCNCC3)nc3nc(CCN4CCNCC4)ccc23)cc1 | 0.6297 | 12 mm | 12 mm
34 | c1cc(N2CCNCC2)ccc1-c1ccc2ccc(-c3ccc(N4CCNCC4)cc3)nc2n1 | -0.0522 | 18 mm | 12 mm
35 | Nc1ccc2c(-c3ccccc3)cc(N3CCCCC3)nc2n1 | 1.0048 | 20 mm | 14 mm
36 | Nc1ccc2c(-c3ccccc3)cc(N3CCOCC3)nc2n1 | -0.0522 | 33 mm | 20 mm
37 | Nc1ccc2c(-c3ccccc3)cc(CCN3CCNCC3)nc2n1 | 0.3475 | 36 mm | 16 mm
38 | Nc1ccc(-c2ccc3ccc(-c4ccc(N5CCNCC5)cc4)nc3n2)cc1 | 1.195 | 32 mm | 16 mm
39 | Oc1ccc2c(-c3ccccc3)cc(N3CCCCC3)nc2n1 | – | – | 24 mm
40 | Oc1ccc2c(-c3ccccc3)cc(N3CCOCC3)nc2n1 | – | 26 mm | 20 mm

Row | Structure (SMILES) | -log(inh/100-inh) [1] | inhibition zone (IZ) (Escherichia coli) | inhibition zone (IZ) (Staphylococcus aureus)
41 | Oc1ccc2c(-c3ccccc3)cc(CCN3CCNCC3)nc2n1 | -0.3889 | – | 12 mm
42 | Oc1ccc(-c2ccc3c(-c4ccccc4)cc(-c4ccc(N5CCNCC5)cc4)nc3n2)cc1 | -0.3274 | 14 mm | 14 mm
43 | Clc1ccc2c(-c3ccccc3)cc(N3CCCCC3)nc2n1 | 0.368 | – | 26 mm
44 | Clc1ccc2c(-c3ccccc3)cc(N3CCOCC3)nc2n1 | -0.2499 | 12 mm | 18 mm
45 | Clc1ccc2c(-c3ccccc3)cc(CCN3CCNCC3)nc2n1 | 0.3274 | 16 mm | –
46 | Clc1ccc(-c2ccc3c(-c4ccccc4)cc(-c4ccc(N5CCNCC5)cc4)nc3n2)cc1 | 0.0871 | 14 mm | 22 mm
47 | COc1ccc2c(-c3ccccc3)cc(N3CCCCC3)nc2n1 | 0.7533 | 20 mm | –
48 | COc1ccc2c(-c3ccccc3)cc(N3CCOCC3)nc2n1 | -0.2689 | 24 mm | –
49 | COc1ccc2c(-c3ccccc3)cc(CCN3CCNCC3)nc2n1 | 0.4102 | – | –
50 | COc1ccc(-c2ccc3ccc(-c4ccc(N5CCNCC5)cc4)nc3n2)cc1 | 0.7884 | – | 28 mm
51 | c1ccc(-c2cc3ccc(N4CCCCC4)nc3nc2N2CCCCC2)cc1 | 1.9956 | 20 mm | 16 mm
52 | O=[N+]([O-])c1cc2cc(-c3ccccc3)c(N3CCCCC3)nc2nc1N1CCCCC1 | 0.5754 | – | 30 mm
53 | Nc1cc2cc(-c3ccccc3)c(N3CCCCC3)nc2nc1N1CCCCC1 | 0.3889 | 26 mm | –
54 | CCOC(=O)N1CCN(c2ccc3cc(-c4ccccc4)c(N4CCCCC4)nc3n2)CC1 | 1.0048 | 18 mm | 15 mm
55 | c1ccc(-c2cc3ccc(N4CCNCC4)nc3nc2N2CCCCC2)cc1 | 0.908 | 14 mm | 18 mm
56 | c1ccc(-c2cc3ccc(N4CCOCC4)nc3nc2N2CCCCC2)cc1 | 0.6886 | 26 mm | 22 mm
57 | Nc1ccc2cc(-c3ccccc3)c(N3CCCCC3)nc2n1 | 0.1581 | – | 18 mm
58 | CCOC(=O)N1CCN(c2ccc3cc(-c4ccccc4)c(N4CCN(C(=O)OCC)CC4)nc3n2)CC1 | -0.0348 | 18 mm | 17 mm
